Assay results published in ChEMBL document CHEMBL5053529 (J Med Chem, 2021).
Values after ≈ are worked out from the molar mass of the structure shown.

Assays:
[1] = Half life in Sprague-Dawley rat at 6 mg/kg, po; format: ADME, organism-based; settings: in vivo
[2] = Volume of distribution in steady state in Sprague-Dawley rat at 6 mg/kg, po; format: ADME, organism-based; settings: in vivo
[3] = AUC (0 to infinity) in Sprague-Dawley rat at 6 mg/kg, po; format: ADME, organism-based; set-up: time infinity, dose 6 mg/kg, route po; settings: in vivo
[4] = Hepatic clearance in Sprague-Dawley rat at 6 mg/kg, po; format: ADME, organism-based; settings: in vivo
[5] = Cmax in Sprague-Dawley rat at 6 mg/kg, po; format: ADME, organism-based; set-up: dose 6 mg/kg, route po; settings: in vivo
[6] = Drug concentration in Sprague-Dawley rat brain at 30 umol/kg, po measured after 4 hrs by LC-MS/MS analysis; format: ADME, organism-based; settings: dose 30 µmol/kg, read-out: Drug uptake
[7] = Thermodynamic solubility of the compound at pH 1; format: physicochemical; settings: buffer, read-out: Therm_solubility
[8] = Oral bioavailability in Beagle dog at 0.3 mg/kg; format: ADME, organism-based, Canis lupus familiaris; settings: in vivo
[9] = Unbound drug concentration in Sprague-Dawley rat brain at 30 umol/kg, po measured after 4 hrs by LC-MS/MS analysis; format: ADME, organism-based; settings: in vivo, dose 30 µmol/kg
[10] = Drug concentration in Sprague-Dawley rat blood at 30 umol/kg, po measured after 4 hrs by LC-MS/MS analysis; format: ADME, organism-based; settings: dose 30 µmol/kg, read-out: Drug uptake
[11] = Unbound drug concentration in Sprague-Dawley rat brain at 100 umol/kg, po measured after 4 hrs by LC-MS/MS analysis; format: ADME, organism-based; settings: in vivo, dose 100 µmol/kg
[12] = Solubility of the compound at pH 6.8; format: physicochemical; settings: buffer
[13] = Kinetic solubility of the compound at pH 7.4; format: physicochemical; settings: buffer, read-out: Kinetic_solubility
[14] = Drug concentration in Sprague-Dawley rat brain at 100 umol/kg, po measured after 4 hrs by LC-MS/MS analysis; format: ADME, organism-based; settings: dose 100 µmol/kg, read-out: Drug uptake
[15] = AUC (0 to infinity) in Beagle dog at 0.3 mg/kg, po; format: ADME, organism-based, Canis lupus familiaris; set-up: time infinity, dose 0.3 mg/kg, route po; settings: in vivo
[16] = Clearance in Beagle dog at 6 mg/kg, po; format: ADME, organism-based, Canis lupus familiaris; settings: in vivo
[17] = Oral bioavailability in C57BL/6 mouse at 6 mg/kg; format: ADME, organism-based; settings: in vivo
[18] = Clearance in human liver microsomes incubated up to 80 mins by LC-MS/MS analysis; format: ADME, Microsome; settings: 1.333 h
[19] = Oral bioavailability in Sprague-Dawley rat at 6 mg/kg; format: ADME, organism-based; settings: in vivo
[20] = Unbound drug concentration in Sprague-Dawley rat brain at 10 umol/kg, po measured after 4 hrs by LC-MS/MS analysis; format: ADME, organism-based; settings: in vivo, dose 10 µmol/kg
[21] = Drug concentration in Sprague-Dawley rat blood at 100 umol/kg, po measured after 4 hrs by LC-MS/MS analysis; format: ADME, organism-based; settings: dose 100 µmol/kg, read-out: Drug uptake
[22] = Half life in Beagle dog at 0.3 mg/kg, po; format: ADME, organism-based, Canis lupus familiaris; settings: in vivo
[23] = Cmax in Beagle dog at 0.3 mg/kg, po; format: ADME, organism-based, Canis lupus familiaris; set-up: dose 0.3 mg/kg, route po; settings: in vivo
[24] = AUC (0 to infinity) in C57BL/6 mouse at 6 mg/kg, po; format: ADME, organism-based; set-up: time infinity, dose 6 mg/kg, route po; settings: in vivo
[25] = Clearance in rat liver microsomes incubated up to 80 mins by LC-MS/MS analysis; format: ADME, Microsome; settings: 1.333 h
[26] = Hepatic clearance in Beagle dog at 0.3 mg/kg, po; format: ADME, organism-based, Canis lupus familiaris; settings: in vivo
[27] = Octanol/water partition coefficient, log P of the compound; format: physicochemical
[28] = Unbound drug concentration in Sprague-Dawley rat brain at 3 umol/kg, po measured after 4 hrs by LC-MS/MS analysis; format: ADME, organism-based; settings: in vivo, dose 3 µmol/kg
[29] = Drug concentration in Sprague-Dawley rat blood at 10 umol/kg, po measured after 4 hrs by LC-MS/MS analysis; format: ADME, organism-based; settings: dose 10 µmol/kg, read-out: Drug uptake
[30] = Drug concentration in Sprague-Dawley rat brain at 10 umol/kg, po measured after 4 hrs by LC-MS/MS analysis; format: ADME, organism-based; settings: dose 10 µmol/kg, read-out: Drug uptake
[31] = Volume of distribution in steady state in C57BL/6 mouse at 6 mg/kg, po; format: ADME, organism-based; settings: in vivo
[32] = Drug concentration in Sprague-Dawley rat brain at 3 umol/kg, po measured after 4 hrs by LC-MS/MS analysis; format: ADME, organism-based; settings: dose 3 µmol/kg, read-out: Drug uptake
[33] = Thermodynamic solubility of the compound at pH 6.8; format: physicochemical; settings: buffer, read-out: Therm_solubility
[34] = Half life in C57BL/6 mouse at 6 mg/kg, po; format: ADME, organism-based; settings: in vivo
[35] = Volume of distribution in steady state in Beagle dog at 0.3 mg/kg, po; format: ADME, organism-based, Canis lupus familiaris; settings: in vivo
[36] = Drug concentration in Sprague-Dawley rat blood at 3 umol/kg, po measured after 4 hrs by LC-MS/MS analysis; format: ADME, organism-based; settings: dose 3 µmol/kg, read-out: Drug uptake
[37] = Clearance in mouse liver microsomes incubated up to 80 mins by LC-MS/MS analysis; format: ADME, Microsome; settings: 1.333 h
[38] = Cmax in C57BL/6 mouse at 6 mg/kg, po; format: ADME, organism-based; set-up: dose 6 mg/kg, route po; settings: in vivo

Q: For Cc1cc(C#N)cnc1C(=O)Nc1ccc(F)c([C@]2(C)CO[C@@](C)(C(F)(F)F)C(N)=N2)c1, which half-life [1] is on record?
A: 4.9 h

Q: And the Vdss [2]?
A: 9 L/kg

Q: And the AUC [3]?
A: 0.973 µM·h

Q: What about the CLH [4] of the same compound?
A: 17 mL/min/kg

Q: And the Cmax [5]?
A: 128 nM

Q: For C[C@@]1(c2nc(NC(=O)c3ncc(C(F)(F)F)cc3Cl)ccc2F)CO[C@@](C)(C(F)(F)F)C(N)=N1, which concentration at 4 h [6] is on record?
A: 3280 nM

Q: And the solubility thermodynamic [7]?
A: > 1500 µg/mL

Q: And the half-life [1]?
A: 13.3 h

Q: What about the bioavailability [8] of the same compound?
A: 57%

Q: And the “Drug uptake(free)” value [9]?
A: 0.12 µM

Q: What about the concentration at 4 h [10] of the same compound?
A: 1710 nM

Q: And the “Drug uptake(free)” value [11]?
A: 0.03 µM

Q: And the solubility [12]?
A: 13 µg/mL (≈ 25.3 µM)

Q: What about the solubility kinetic [13] of the same compound?
A: 15 µg/mL (≈ 29.2 µM)

Q: And the concentration at 4 h [14]?
A: 3600 nM

Q: What about the Vdss [2] of the same compound?
A: 6.9 L/kg

Q: What about the AUC(0-inf) [15] of the same compound?
A: 7.75 µM·h

Q: What about the CL/F [16] of the same compound?
A: 2 mL/min/kg

Q: And the AUC [3]?
A: 2.045 µM·h

Q: And the bioavailability [17]?
A: 48%

Q: And the CLH [18]?
A: 26 µL/min/mg

Q: And the bioavailability [19]?
A: 60%

Q: And the “Drug uptake(free)” value [20]?
A: 0.008 µM

Q: And the concentration at 4 h [21]?
A: 3430 nM

Q: What about the half-life [22] of the same compound?
A: 23.4 h

Q: What about the Cmax [23] of the same compound?
A: 257 nM

Q: And the CLH [4]?
A: 37 mL/min/kg

Q: And the AUC [24]?
A: 1.16 µM·h

Q: And the CLH [25]?
A: 37 µL/min/mg

Q: What about the CLH [26] of the same compound?
A: 3.3 mL/min/kg

Q: And the logP [27]?
A: 4.3

Q: And the “Drug uptake(free)” value [28]?
A: 0.002 µM

Q: And the concentration at 4 h [29]?
A: 440 nM

Q: What about the concentration at 4 h [30] of the same compound?
A: 850 nM

Q: And the Vdss [31]?
A: 6.9 L/kg

Q: And the concentration at 4 h [32]?
A: 180 nM

Q: What about the solubility thermodynamic [33] of the same compound?
A: 23 µg/mL (≈ 44.8 µM)

Q: What about the half-life [34] of the same compound?
A: 9.5 h

Q: And the Vdss [35]?
A: 3.9 L/kg

Q: What about the concentration at 4 h [36] of the same compound?
A: 160 nM

Q: What about the Cmax [5] of the same compound?
A: 146 nM

Q: What about the CLH [37] of the same compound?
A: 32 µL/min/mg

Q: What about the Cmax [38] of the same compound?
A: 82 nM

Q: For COCCOc1cnc(C(=O)Nc2ccc(F)c([C@]3(C)CO[C@@](C)(C(F)(F)F)C(N)=N3)n2)c(N)n1, which CLH [25] is on record?
A: 204 µL/min/mg

Q: What about the CLH [37] of the same compound?
A: 866 µL/min/mg
